Measurements as given in patent US10442835B2, “Water-soluble rapamycin derivatives” (Zhejiang Hisun Pharmaceutical Co., Ltd., priority 2016, dated 2019).
Values belong to the compound of their own block, whether it stands above or below them.

Columns and labels:
[1] = Drug release in serum by prodrugs; assay type: in vitro ADME, rat; details: 37° C.; HPLC at 10 min to 4 h
Procedure: The effects of the compounds according to the present invention as prodrugs of rapamycin can be confirmed by standard operational procedures of pharmacological experiments.
10 mL ZnCl2 solution with a concentration of 0.10 mol/L was prepared for use.
1.5 mL blood from ophthalmic artery of rats was injected into a 1.5 mL centrifuge tube and was centrifuged at 12000 rad/min for 10 min. 300 μl supernate (serum) was pipetted into a 1.5 mL centrifuge tube. 7 samples of the serum were prepared for use with the same method.
As a blank control, 100 μl water was added to centrifuge tube No. 7. Then the tubes were incubated at 37° C. in an incubator.
300 μl acetonitrile and 300 μl ZnCl2 solution of 0.1 mol/L were added to each of centrifuge tubes No. 1-6 at 10 min, 0.5 h, 1 h, 2 h, 3 h, and 4 h, respectively. The tubes were vortexed homogeneously for 5 min, so as to end the action of the enzyme in the serum on the compounds. 300 μl acetonitrile and 300 μl ZnCl2 solution of 0.1 M were added to the centrifuge tube No. 7 at 4 h, which was then vortexed homogeneously for 5 min.
Each of the centrifuge tubes No. 1-7 was centrifuged at 12000 rad/min for 15 min. The protein in the serum was removed via centrifuging.

[2] = Body weight of OS-RC-2 tumor nude mice
Procedure: The experiment was terminated and tumors were stripped and weighted. The tumor inhibition rate was calculated.
The body weight can indirectly reflect the toxicity of the drugs.

[3] = Test for solubility in water; assay type: physicochemical; details: water, thermodynamic from solid
Procedure: The experiments herein can measure the dissolution profile in water of the compounds according to the present invention.
To a 25 ml volumetric flask, 25 mg everolimus was added, and diluted with acetonitrile to volume. The mixture was shaken till all the solid dissolved, obtaining 1 mg/mL everolimus solution in acetonitrile.
1 mg/mL everolimus solution in acetonitrile was added to a 10 ml volumetric flask, and was diluted with acetonitrile by 2 times, 10 times, 100 times and 1000 times, so as to obtain everolimus solutions in acetonitrile with a concentration of 0.5 mg/mL, 0.1 mg/mL, 0.01 mg/mL and 0.001 mg/mL, respectively.
Each of the three mixtures was shaken till the solid in the volumetric flask stopped to dissolve. Before analyzed by HPLC, 1 mL of each solution was filtrated via a 0.22 μm filter. The solubility of the compounds was calculated from the standard curve using the peak area of the main peak obtained.
Based on the same study method, comparisons of the solubility between sirolimus/temsirolimus and the compounds modified by glutathione are carried out, respectively.

[4] = In vivo pharmacokinetic study in rats; set-up: species or system SD rats
Procedure: To further study the in vivo pharmacokinetic characteristics of compound I-1 in rats, compound I-1 was administrated to SD rats via intravenous injection. The in vivo pharmacokinetic characteristics and bioavailability of everolimus released in rats were measured, and compared with the pharmacokinetic characteristics of everolimus via oral administration.
Then the animals were observed when blood was sampled every time until the last sample was collected.

[5] = Day 5, G4 compound I-1 8.12 mg/kg ig 3×/qw
[6] = Day 5, G5 compound I-1 2.0 mg/kg iv 3×/qw
[7] = Day 5, G6 compound I-1 8.12 mg/kg iv 3×/qw
[8] = Day 5, G7 compound I-1 32.7 mg/kg iv 1×/qw
[9] = Day 8, G4 compound I-1 8.12 mg/kg ig 3×/qw
[10] = Day 8, G5 compound I-1 2.0 mg/kg iv 3×/qw
[11] = Day 8, G6 compound I-1 8.12 mg/kg iv 3×/qw
[12] = Day 8, G7 compound I-1 32.7 mg/kg iv 1×/qw
[13] = Day 12, G4 compound I-1 8.12 mg/kg ig 3×/qw
[14] = Day 12, G5 compound I-1 2.0 mg/kg iv 3×/qw
[15] = Day 12, G6 compound I-1 8.12 mg/kg iv 3×/qw
[16] = Day 12, G7 compound I-1 32.7 mg/kg iv 1×/qw
[17] = Day 15, G4 compound I-1 8.12 mg/kg ig 3×/qw
[18] = Day 15, G5 compound I-1 2.0 mg/kg iv 3×/qw
[19] = Day 15, G6 compound I-1 8.12 mg/kg iv 3×/qw
[20] = Day 15, G7 compound I-1 32.7 mg/kg iv 1×/qw
[21] = Day 19, G4 compound I-1 8.12 mg/kg ig 3×/qw
[22] = Day 19, G5 compound I-1 2.0 mg/kg iv 3×/qw
[23] = Day 19, G6 compound I-1 8.12 mg/kg iv 3×/qw
[24] = Day 19, G7 compound I-1 32.7 mg/kg iv 1×/qw
[25] = Day 22, G4 compound I-1 8.12 mg/kg ig 3×/qw
[26] = Day 22, G5 compound I-1 2.0 mg/kg iv 3×/qw
[27] = Day 22, G6 compound I-1 8.12 mg/kg iv 3×/qw
[28] = Day 22, G7 compound I-1 32.7 mg/kg iv 1×/qw
[29] = Day 26, G4 compound I-1 8.12 mg/kg ig 3×/qw
[30] = Day 26, G5 compound I-1 2.0 mg/kg iv 3×/qw
[31] = Day 26, G6 compound I-1 8.12 mg/kg iv 3×/qw
[32] = Day 26, G7 compound I-1 32.7 mg/kg iv 1×/qw
[33] = Day 29, G4 compound I-1 8.12 mg/kg ig 3×/qw
[34] = Day 29, G5 compound I-1 2.0 mg/kg iv 3×/qw
[35] = Day 29, G6 compound I-1 8.12 mg/kg iv 3×/qw
[36] = Day 29, G7 compound I-1 32.7 mg/kg iv 1×/qw
[37] = Day 32, G4 compound I-1 8.12 mg/kg ig 3×/qw
[38] = Day 32, G5 compound I-1 2.0 mg/kg iv 3×/qw
[39] = Day 32, G6 compound I-1 8.12 mg/kg iv 3×/qw
[40] = Day 32, G7 compound I-1 32.7 mg/kg iv 1×/qw
[41] = Sprague-Dawley (SD), rat, everolimus in plasma, everolimus PO 10 mg/kg, male SD rats

SMILES: CO[C@H]1C[C@@H]2CC[C@@H](C)[C@@](O)(O2)C(=O)C(=O)N2CCCC[C@H]2C(=O)OC([C@H](C)C[C@@H]2CC[C@@H](OCCOC(=O)CSC[C@H](NC(=O)CC[C@H](N)C(=O)O)C(=O)NCC(=O)O)[C@H](OC)C2)CC(=O)[C@H](C)/C=C(\C)[C@@H](O)[C@@H](OC)C(=O)[C@H](C)C[C@@H](C)\C=C/C=C/C=C/1C (some centres unmarked) [Compound I-1]
release of everolimus in rat's serum [1]: slowly release everolimus
Body Weight, mean value ([2]; Day 1, G4 compound I-1 8.12 mg/kg ig 3×/qw): 21.04 g
Body Weight, mean value ([2]; Day 1, G5 compound I-1 2.0 mg/kg iv 3×/qw): 20.67 g
Body Weight, mean value ([2]; Day 1, G6 compound I-1 8.12 mg/kg iv 3×/qw): 21.39 g
Body Weight, mean value ([2]; Day 1, G7 compound I-1 32.7 mg/kg iv 1×/qw): 21.28 g
Body Weight, mean value [2, 5]: 20.27 g
Decrease rate of body weight [2, 5]: 3.7%
Body Weight, mean value [2, 6]: 19.27 g
Decrease rate of body weight [2, 6]: 6.8%
Body Weight, mean value [2, 7]: 20.46 g
Decrease rate of body weight [2, 7]: 4.4%
Body Weight, mean value [2, 8]: 19.97 g
Decrease rate of body weight [2, 8]: 6.2%
Body Weight, mean value [2, 9]: 20.04 g
Decrease rate of body weight [2, 9]: 4.8%
Body Weight, mean value [2, 10]: 18.76 g
Decrease rate of body weight [2, 10]: 9.2%
Body Weight, mean value [2, 11]: 21.16 g
Decrease rate of body weight [2, 11]: 1.1%
Body Weight, mean value [2, 12]: 20.14 g
Decrease rate of body weight [2, 12]: 5.3%
Body Weight, mean value [2, 13]: 19.62 g
Decrease rate of body weight [2, 13]: 6.7%
Body Weight, mean value [2, 14]: 18.71 g
Decrease rate of body weight [2, 14]: 9.5%
Body Weight, mean value [2, 15]: 21.25 g
Decrease rate of body weight [2, 15]: 0.7%
Body Weight, mean value [2, 16]: 19.93 g
Decrease rate of body weight [2, 16]: 6.3%
Body Weight, mean value [2, 17]: 19.29 g
Decrease rate of body weight [2, 17]: 8.3%
Body Weight, mean value [2, 18]: 18.18 g
Decrease rate of body weight [2, 18]: 12.0%
Body Weight, mean value [2, 19]: 20.71 g
Decrease rate of body weight [2, 19]: 3.2%
Body Weight, mean value [2, 20]: 19.38 g
Decrease rate of body weight [2, 20]: 8.9%
Body Weight, mean value [2, 21]: 19.19 g
Decrease rate of body weight [2, 21]: 8.8%
Body Weight, mean value [2, 22]: 18.30 g
Decrease rate of body weight [2, 22]: 11.5%
Body Weight, mean value [2, 23]: 19.67 g
Decrease rate of body weight [2, 23]: 8.0%
Body Weight, mean value [2, 24]: 19.12 g
Decrease rate of body weight [2, 24]: 10.2%
Body Weight, mean value [2, 25]: 19.19 g
Decrease rate of body weight [2, 25]: 8.8%
Body Weight, mean value [2, 26]: 18.30 g
Decrease rate of body weight [2, 26]: 11.5%
Body Weight, mean value [2, 27]: 19.67 g
Decrease rate of body weight [2, 27]: 8.0%
Body Weight, mean value [2, 28]: 19.12 g
Decrease rate of body weight [2, 28]: 10.2%
Body Weight, mean value [2, 29]: 19.65 g
Decrease rate of body weight [2, 29]: 6.6%
Body Weight, mean value [2, 30]: 17.95 g
Decrease rate of body weight [2, 30]: 13.1%
Body Weight, mean value [2, 31]: 19.31 g
Decrease rate of body weight [2, 31]: 9.7%
Body Weight, mean value [2, 32]: 19.12 g
Decrease rate of body weight [2, 32]: 10.2%
Body Weight, mean value [2, 33]: 20.02 g
Decrease rate of body weight [2, 33]: 4.8%
Body Weight, mean value [2, 34]: 18.29 g
Decrease rate of body weight [2, 34]: 11.5%
Body Weight, mean value [2, 35]: 19.04 g
Decrease rate of body weight [2, 35]: 10.5%
Body Weight, mean value [2, 36]: 19.04 g
Decrease rate of body weight [2, 36]: 10.5%
Body Weight, mean value [2, 37]: 19.87 g
Decrease rate of body weight [2, 37]: 5.6%
Body Weight, mean value [2, 38]: 18.12 g
Decrease rate of body weight [2, 38]: 12.3%
Body Weight, mean value [2, 39]: 18.80 g
Decrease rate of body weight [2, 39]: 11.7%
Body Weight, mean value [2, 40]: 18.94 g
Decrease rate of body weight [2, 40]: 10.7%
stability after dissolving in normal saline: the resulted solution is stable

solubility [3]: < 1 µg/mL
concentration at 3 h ([4]; Sprague-Dawley (SD), rat, plasma, 3 h, oral administration of everolimus 10.000 mg/kg, male SD rats): 64.3 ng/mL
concentration at 4 h ([4]; Sprague-Dawley (SD), rat, plasma, 4 h, oral administration of everolimus 10.000 mg/kg, male SD rats): 61.4 ng/mL
concentration at 6 h ([4]; Sprague-Dawley (SD), rat, plasma, 6 h, oral administration of everolimus 10.000 mg/kg, male SD rats): 32.3 ng/mL
AUC(0-inf) [4, 41]: 454 ng·h/mL
AUC(0-t) [4, 41]: 454 ng·h/mL
Cmax [4, 41]: 126 ng/mL
Tmax [4, 41]: 1.91 h
half-life [4, 41]: 2.2 h
MRT ([4]; Sprague-Dawley (SD), rat, everolimus in plasma, everolimus PO 10 mg/kg, male SD rats, read-out: MRT (mean residence time)): 3.17 h
AUC Extr ([4]; everolimus in plasma, everolimus PO 10 mg/kg, male SD rats): 6.90%
concentration at 0 h ([4]; rat, plasma, 0 h, oral administration of everolimus 10.000 mg/kg, male SD rats): 0 ng/mL
concentration at 0.25 h ([4]; rat, plasma, 0.25 h, oral administration of everolimus 10.000 mg/kg, male SD rats): 17.3 ng/mL
concentration at 0.5 h ([4]; rat, plasma, 0.5 h, oral administration of everolimus 10.000 mg/kg, male SD rats): 99.9 ng/mL
concentration at 1 h ([4]; rat, plasma, 1 h, oral administration of everolimus 10.000 mg/kg, male SD rats): 99.1 ng/mL
concentration at 1.5 h ([4]; rat, plasma, 1.5 h, oral administration of everolimus 10.000 mg/kg, male SD rats): 90.4 ng/mL
concentration at 2 h ([4]; rat, plasma, 2 h, oral administration of everolimus 10.000 mg/kg, male SD rats): 69.7 ng/mL
concentration at 8 h ([4]; rat, plasma, 8 h, oral administration of everolimus 10.000 mg/kg, male SD rats): 16.3 ng/mL
concentration at 24 h ([4]; rat, plasma, 24 h, oral administration of everolimus 10.000 mg/kg, male SD rats): 2.2 ng/mL
area under the curve (AUC) of plasma concentration of everolimus vs. time ([4]; rats orally administrated with everolimus 10 mg/Kg): about 450
SMILES: CO[C@H]1C[C@@H]2CC[C@@H](C)[C@@](O)(O2)C(=O)C(=O)N2CCCC[C@H]2C(=O)O[C@H]([C@H](C)C[C@@H]2CC[C@@H](OCCO)[C@H](OC)C2)CC(=O)[C@H](C)/C=C(\C)[C@@H](O)[C@@H](OC)C(=O)[C@H](C)C[C@H](C)/C=C/C=C/C=C/1C [Everolimus, reference compound]
